# From patent US20100168102A9, “Amide Derivatives as Kinase Inhibitors” (Devgen NV, priority 2005, published 2010)
# Tests used:
# PKC epsilon = target: T1, PKC epsilon (Homo sapiens, UniProt Q02156); assay: Biochemical assay for PKC epsilon (fluorescence polarization, Protein Kinase C Assay Kit, Red); conditions: compounds of Formula XIV, Table 3; read-out: IC50 μM PKCε
# T1 construct: purchased Invitrogen P2282
# T1 sequence (Q02156 1-737): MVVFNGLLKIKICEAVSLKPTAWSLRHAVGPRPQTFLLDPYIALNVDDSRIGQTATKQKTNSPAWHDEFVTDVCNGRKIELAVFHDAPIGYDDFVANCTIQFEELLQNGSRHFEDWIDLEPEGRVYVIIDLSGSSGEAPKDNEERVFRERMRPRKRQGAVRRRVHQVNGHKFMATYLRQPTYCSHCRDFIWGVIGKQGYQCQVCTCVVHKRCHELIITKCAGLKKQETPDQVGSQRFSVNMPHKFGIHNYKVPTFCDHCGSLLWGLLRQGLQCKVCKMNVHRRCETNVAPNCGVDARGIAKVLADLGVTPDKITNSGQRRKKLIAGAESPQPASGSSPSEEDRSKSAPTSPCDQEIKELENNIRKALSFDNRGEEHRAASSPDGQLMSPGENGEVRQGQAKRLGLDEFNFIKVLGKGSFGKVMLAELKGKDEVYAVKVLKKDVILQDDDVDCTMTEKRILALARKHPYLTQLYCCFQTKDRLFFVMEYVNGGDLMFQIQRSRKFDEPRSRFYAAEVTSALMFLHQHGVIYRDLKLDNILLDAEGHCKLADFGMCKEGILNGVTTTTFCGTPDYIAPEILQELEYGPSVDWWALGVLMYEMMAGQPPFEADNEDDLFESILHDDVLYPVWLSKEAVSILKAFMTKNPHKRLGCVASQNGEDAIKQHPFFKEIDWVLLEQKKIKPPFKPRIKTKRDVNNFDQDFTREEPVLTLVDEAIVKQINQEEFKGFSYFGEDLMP
# How it was run: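 PKC epsilon at 10 ng/ml final was preincubated 30 min at room temperature with compound in HEPES pH 7.4 with DTT and Triton X-100. ATP/protein substrate was then added in buffer with MgCl2 and CaCl2 for 80 min. The reaction was stopped with EDTA, phosphorylation was detected by fluorescence polarization with rhodamine tracer and anti-phosphoserine antibody, and IC50 values came from curve fits.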
# human ROCKα/ROCKII mix = target: T2, human ROCKα/ROCKII mix (Homo sapiens, UniProt O75116); assay: Biochemical assay for ROCK (fluorescence polarization, ROCK IMAP Kit); conditions: compounds of Formula XIV, Table 3
# T2 construct: purchased Upstate Biotechnology 14-451
# T2 sequence (O75116 11-552 limits assumed): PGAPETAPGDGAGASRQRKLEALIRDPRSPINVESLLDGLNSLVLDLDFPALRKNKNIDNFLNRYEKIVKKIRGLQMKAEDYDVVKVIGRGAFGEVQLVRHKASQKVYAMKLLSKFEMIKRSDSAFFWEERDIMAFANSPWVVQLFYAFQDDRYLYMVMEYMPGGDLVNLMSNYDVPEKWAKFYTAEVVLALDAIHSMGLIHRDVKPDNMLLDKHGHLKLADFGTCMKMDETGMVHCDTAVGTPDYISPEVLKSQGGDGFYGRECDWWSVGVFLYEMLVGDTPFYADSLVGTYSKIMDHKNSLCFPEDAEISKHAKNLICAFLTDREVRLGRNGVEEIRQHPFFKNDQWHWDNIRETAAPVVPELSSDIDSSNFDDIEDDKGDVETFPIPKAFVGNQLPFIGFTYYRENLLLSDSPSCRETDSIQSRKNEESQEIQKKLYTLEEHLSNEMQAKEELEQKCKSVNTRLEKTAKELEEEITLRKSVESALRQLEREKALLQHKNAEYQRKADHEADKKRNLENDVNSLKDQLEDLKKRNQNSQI
Compound,IC50 (PKC epsilon),IC50 (human ROCKα/ROCKII mix)
"CC(C)(NC(=O)CC(N)c1ccc(C(=O)Nc2ccncc2)cc1)c1ccccc1 (centres unmarked) [Compound 218, 4-[1-Amino-2-(1-methyl-1-phenyl-ethylcarbamoyl)-ethyl]-N-pyridin-4-yl-benzamide]",0.5 to 5 µM,0.05 to 0.5 µM
"NC(CC(=O)NC1CCCc2ccccc21)c1ccc(C(=O)Nc2ccncc2)cc1 (centres unmarked) [Compound 223, 4-[1-Amino-2-(1,2,3,4-tetrahydro-naphtalen-1-ylcarbamoyl)-ethyl]-N-pyridin-4-yl-benzamide]",0.05 to 0.5 µM,0.05 to 0.5 µM
"NC(CC(=O)NC(c1ccccc1)c1ccccc1)c1ccc(C(=O)Nc2ccncc2)cc1 (centres unmarked) [Compound 225, 4-[1-Amino-2-(benzhydryl-carbamoyl)-ethyl]-N-pyridin-4-yl-benzamide]",0.5 to 5 µM,0.05 to 0.5 µM
"NC(CC(=O)NC1c2ccccc2-c2ccccc21)c1ccc(C(=O)Nc2ccncc2)cc1 (centres unmarked) [Compound 227, 4-[1-Amino-2-(9H-fluoren-9-ylcarbamoyl)-ethyl]-N-pyridin-4-yl-benzamide]",0.5 to 5 µM,0.05 to 0.5 µM
"NC(CC(=O)NC1CCc2ccccc21)c1ccc(C(=O)Nc2ccncc2)cc1 (centres unmarked) [Compound 228, 4-[1-Amino-2-(indan-1-ylcarbamoyl)-ethyl]-N-pyridin-4-yl-benzamide]",0.05 to 0.5 µM,0.05 to 0.5 µM
"CC(NC(=O)CC(N)c1ccc(C(=O)Nc2ccncc2)cc1)c1cccc2ccccc12 (centres unmarked) [Compound 229, 4-{1-Amino-2-(1-naphtalen-1-yl-ethylcarbamoyl)-ethyl]-N-pyridin-4-yl-benzamide]",0.5 to 5 µM,0.05 to 0.5 µM
"CC(NC(=O)CC(N)c1ccc(C(=O)Nc2ccncc2)cc1)c1cccc2ccccc12 (centres unmarked) [Compound 230, 4-[1-Amino-2-(1-naphtalen-1-yl-ethylcarbamoyl)-ethyl]-N-pyridin-4-yl-benzamide]",0.5 to 5 µM,0.05 to 0.5 µM
"Cc1ccccc1CNC(=O)CC(N)c1ccc(C(=O)Nc2ccncc2)cc1 (centres unmarked) [Compound 231, 4-[1-Amino-2-(2-methyl-benzylcarbamoyl)-ethyl]-N-pyridin-4-yl-benzamide]",0.5 to 5 µM,0.05 to 0.5 µM
"Cc1cccc(CNC(=O)CC(N)c2ccc(C(=O)Nc3ccncc3)cc2)c1 (centres unmarked) [Compound 232, 4-[1-Amino-2-(3-methyl-benzylcarbamoyl)-ethyl]-N-pyridin-4-yl-benzamide]",0.5 to 5 µM,0.05 to 0.5 µM
"Cc1ccc(CNC(=O)CC(N)c2ccc(C(=O)Nc3ccncc3)cc2)cc1 (centres unmarked) [Compound 233, 4-[1-Amino-2-(4-methyl-benzylcarbamoyl)-ethyl]-N-pyridin-4-yl-benzamide]",0.5 to 5 µM,0.05 to 0.5 µM
"Cc1ccc(C)c(CNC(=O)CC(N)c2ccc(C(=O)Nc3ccncc3)cc2)c1 (centres unmarked) [Compound 234, 4-[1-Amino-2-(2,5-dimethyl-benzylcarbamoyl)-ethyl]-N-pyridin-4-yl-benzamide]",0.5 to 5 µM,0.05 to 0.5 µM
"COc1cccc(CNC(=O)CC(N)c2ccc(C(=O)Nc3ccncc3)cc2)c1OC (centres unmarked) [Compound 238, 4-[1-Amino-2-(2,3-dimethoxy-benzylcarbamoyl)-ethyl]-N-pyridin-4-yl-benzamide]",5 to 50 µM,0.05 to 0.5 µM
"COc1ccc(CNC(=O)CC(N)c2ccc(C(=O)Nc3ccncc3)cc2)cc1 (centres unmarked) [Compound 239, 4-[1-Amino-2-(4-methoxy-benzylcarbamoyl)-ethyl]-N-pyridin-4-yl-benzamide]",0.5 to 5 µM,0.05 to 0.5 µM
"COc1ccc(CNC(=O)CC(N)c2ccc(C(=O)Nc3ccncc3)cc2)cc1OC (centres unmarked) [Compound 240, 4-[1-Amino-2-(3,4-dimethoxy-benzylcarbamoyl)-ethyl]-N-pyridin-4-yl-benzamide]",5 to 50 µM,0.05 to 0.5 µM
"COc1ccc(OC)c(CNC(=O)CC(N)c2ccc(C(=O)Nc3ccncc3)cc2)c1 (centres unmarked) [Compound 242, 4-[1-Amino-2-(2,5-dimethoxy-benzylcarbamoyl)-ethyl]-N-pyridin-4-yl-benzamide]",0.5 to 5 µM,0.05 to 0.5 µM
"COc1cccc(OC)c1CNC(=O)CC(N)c1ccc(C(=O)Nc2ccncc2)cc1 (centres unmarked) [Compound 243, 4-[1-Amino-2-(2,6-dimethoxy-benzylcarbamoyl)-ethy]-N-pyridin-4-yl-benzamide]",0.5 to 5 µM,0.05 to 0.5 µM
"COc1ccc(C(NC(=O)CC(N)c2ccc(C(=O)Nc3ccncc3)cc2)c2ccc(OC)cc2)cc1 (centres unmarked) [Compound 244, 4-(1-Amino-2-{[bis-(4-methoxy-phenyl)-methyl]-carbamoyl}-ethyl)-N-pyridin-4-yl-benzamide]",0.5 to 5 µM,0.05 to 0.5 µM
"NC(CC(=O)NCc1ccccc1Cl)c1ccc(C(=O)Nc2ccncc2)cc1 (centres unmarked) [Compound 246, 4-[1-Amino-2-(2-chloro-benzylcarbamoyl)-ethyl]-N-pyridin-4-yl-benzamide]",0.5 to 5 µM,0.05 to 0.5 µM
"Cc1cccc(Cl)c1CNC(=O)CC(N)c1ccc(C(=O)Nc2ccncc2)cc1 (centres unmarked) [Compound 247, 4-[1-Amino-2-(2-chloro-6-methyl-benzylcarbamoyl)-ethyl]-N-pyridin-4-yl-benzamide]",0.5 to 5 µM,0.05 to 0.5 µM
"NC(CC(=O)NCc1cccc(Cl)c1)c1ccc(C(=O)Nc2ccncc2)cc1 (centres unmarked) [Compound 248, 4-[1-Amino-2-(3-chloro-benzylcarbamoyl)-ethyl]-N-pyridin-4-yl-benzamide]",0.05 to 0.5 µM,0.05 to 0.5 µM
"Cc1ccc(CNC(=O)CC(N)c2ccc(C(=O)Nc3ccncc3)cc2)cc1Cl (centres unmarked) [Compound 249, 4-[1-Amino-2-(3-chloro-4-methyl-benzylcarbamoyl)-ethyl]-N-pyridin-4-yl-benzamide]",0.5 to 5 µM,0.05 to 0.5 µM
"NC(CC(=O)NCc1cc(Cl)cc(Cl)c1)c1ccc(C(=O)Nc2ccncc2)cc1 (centres unmarked) [Compound 250, 4-[1-Amino-2-(3,5-dichloro-benzylcarbamoyl)-ethyl]-N-pyridin-4-yl-benzamide]",0.5 to 5 µM,0.05 to 0.5 µM
"NC(CC(=O)NCc1cc(Cl)ccc1Cl)c1ccc(C(=O)Nc2ccncc2)cc1 (centres unmarked) [Compound 251, 4-[1-Amino-2-(3,6-dichloro-benzylcarbamoyl)-ethyl]-N-pyridin-4-yl-benzamide]",0.5 to 5 µM,0.05 to 0.5 µM
"NC(CC(=O)NCc1ccc(Cl)cc1Cl)c1ccc(C(=O)Nc2ccncc2)cc1 (centres unmarked) [Compound 252, 4-[1-Amino-2-(2,4-dichloro-benzylcarbamoyl)-ethyl]-N-pyridin-4-yl-benzamide]",0.5 to 5 µM,0.05 to 0.5 µM
"NC(CC(=O)NCc1cccc(Cl)c1Cl)c1ccc(C(=O)Nc2ccncc2)cc1 (centres unmarked) [Compound 253, 4-[1-Amino-2-(2,3-dichloro-benzylcarbamoyl)-ethyl]-N-pyridin-4-yl-benzamide]",0.05 to 0.5 µM,0.05 to 0.5 µM
"NC(CC(=O)NC(c1ccccc1)c1ccc(Cl)cc1)c1ccc(C(=O)Nc2ccncc2)cc1 (centres unmarked) [Compound 255, 4-(1-Amino-2-{[(4-chloro-phenyl)-phenyl-methyl]-carbamoyl}-ethyl)-N-pyridin-4-yl-benzamide]",0.5 to 5 µM,0.05 to 0.5 µM
"NC(CC(=O)NCc1ccccc1F)c1ccc(C(=O)Nc2ccncc2)cc1 (centres unmarked) [Compound 256, 4-[1-Amino-2-(2-fluoro-benzylcarbamoyl)-ethyl]-N-pyridin-4-yl-benzamide]",0.5 to 5 µM,0.05 to 0.5 µM
"NC(CC(=O)NCc1cccc(F)c1)c1ccc(C(=O)Nc2ccncc2)cc1 (centres unmarked) [Compound 257, 4-[1-Amino-2-(3-fluoro-benzylcarbamoyl)-ethyl]-N-pyridin-4-yl-benzamide]",0.5 to 5 µM,0.05 to 0.5 µM
